For series [1] the following is noted: cited from earlier work.
A short description of series [2]: In vitro permeation and flux of dipivefrin topical gel through CelluSep. The format is in vitro ADME. Conditions: 5.0% dipivefrin (w/w) topical gel. The method, then:
Both in vitro and ex vivo permeation was measured for the following formulation. […] Rapid release from the topical gel matrix was observed. Referring to FIG. 4A, the amount permeated (in ug) was measured as a function of time (in minutes). […] The flux (ug/cm^2*min) was measured as a function of time (minutes).

A short description of series [3]: Ex vivo permeation and flux of epinephrine prodrug topical gels through porcine ear tissue. Conditions: topical gel, 2.5% to 10% API loading, 24 hours. The format is in vitro ADME. How it is done:
Both in vitro and ex vivo permeation was measured for the following formulation. […]
Exemplary formulations were evaluated including Formulations 1-3, with API loading from 2.5-10% w/w.
(§1) The claimed topical compositions were tested for permeation using both porcine ear and buccal tissue.
(§2) The tested tissues were Porcine Ear vs. Buccal Tissue through 24 hours.

Series [4] is described as follows: Ex vivo permeation and flux of dipivefrin topical gel through buccal tissue. The following applies: through 24 hours. The format is in vitro ADME, porcine. How it is done:
as §1, §2

The conditions of series [5]: male, Wistar Han, rat, in vivo. The method, then:
A study was conducted to evaluate the pharmacokinetics of the claimed composition in a rat model. The purpose of this study was to enable selection of dosing regimen to be used on Passive Cutaneous Anaphylaxis (PCA) model in mammalian subjects. In this study, 15 male rats were studied to model the effects of the claimed composition on passive cutaneous anaphylaxis with a topical route of exposure. […] The Wistar Han rat was chosen as the animal model for this study as it is an appropriate model to study the effects of drug candidates on passive cutaneous anaphylaxis, based on available literature.
In this study, the pharmaceutical composition was applied on the dorsal side of both ears for groups 2-5 and only on the left ear of group 1 using a gloved finger until absorbed. The topical gel was applied as an even layer with no rubbing required.
The dark gray bar represents concentration in ng/g after 30 minutes of exposure for both 1% (low dose) and 2.5% (high dose) compositions. The light gray bar represents concentration in ng/g after 60 minutes of exposure for both 1% (low dose) and 2.5% (high dose) compositions.

The nature of series [6]: Non-clinical pharmacokinetic study of 2.5% topical gel in minipigs. The format is in vivo. The method, then:
A non-clinical pharmacokinetic study was also conducted in minipigs. In this study, a 2.5% topical gel was applied at 30 mg/cm2 in 7, 10 and 12% body surface area (BSA) coverage respectively, and data was collected over 6 hours.

Another series deals with NK cells. In words: NK activation assay, CD25+CD69+ NK cells by flow cytometry. The format is cell-based, human. The following applies: for % inactivation relative to vehicle: human NK % CD25+CD69+ cells. How it is done: IC50 is a measurement of how much of a drug is needed to inhibit a biological process by half.
Peripheral blood mononuclear cells (PBMC) were isolated over a density gradient from six donor buffy coats and CD56+NK were separated using magnetic selection. Purity of sorted NIK cells was assessed by flow cytometry using CD56 as a marker of NK cells.
Following magnetic isolation, NK cells were seeded at 5×10^5 NK cells per well in a 48 well plate alongside NK activation beads (prepared as per manufacturer's protocol) at a 1:1 bead to cell ratio, IL-2 (final concentration 500 IU/ml) and either prodrug/epinephrine at 5 different doses (see section 3.6 below for further details), cortisol/dexamethasone (positive controls) or vehicle (media only). NK cells were cultured with the NK activation beads for two days at 37° C. in the presence of 5% CO2. After two days, supernatants were collected from each condition for future TR-FRET analysis (AQV-24-001_AM-1 only, see below) and the remaining cells from each condition were assessed for expression of surface markers CD25, CD69 and for cell viability using eBioscience™ Fixable Viability Dye. Samples were then treated with eBioscience Intracellular Fixation & Permeabilization Buffer Set to allow staining of intracellular granzyme B. Marker expression was determined by flow cytometry and appropriate “Fluorescence-Minus-One controls” controls were used. Flow cytometry data was analysed using FlowJo analysis software and data was graphed using Graph Pad Prism.
The study was performed in: 3 donors Each experimental condition was tested in: singlicate. For Flow cytometry, viability was measured and cells were phenotyped for NK cell activation (CD25, CD69, granzyme B). Raw and analysed data are provided.
Each experimental condition was tested in: singlicate. For Flow cytometry, viability was measured and cells were phenotyped for NK cell activation (CD25, CD69, granzyme B). Raw and analysed data are provided. Supernatants were harvested in triplicate per condition and stored until further analysis of IFNγ content by TR-FRET. Data was analysed and graphed. Raw and analysed data are provided. […]
In general terms: A flow cytometer gives signals particle by particle.

For series [7] the following is noted: human, in vivo. How it is done: A two-part clinical study was conducted for alopecia areata (AA) patients. AA is an autoimmune disease leading to hair loss on the scalp, face, and in more severe cases, other body areas. The mechanisms leading to AA are multifactorial, including an autoimmune response that results in the loss of hair follicle immune privilege. The patient will be given treatment based on disease severity (>50% involvement—JAK inhibitors; <50% involvement—corticosteroids).
In Part 1, single ascending doses of a single formulation of AQST-108 were given. […] The 1.0% AQST-108 strength was down-selected to Part 2.
In Part 2, a single dose of 1 of 3 formulations of 1.0% of AQST-108 was given.

On the set-up of series [8]: species or system Sinclair Nanopigs. The following applies: in vivo. How it is done: A study was conducted to evaluate the systemic pharmacokinetic characteristics of Dipivefrin Topical Gel when administered once by topical application to intact, abraded, and wounded skin of Sinclair Nanopigs™. The study design was as follows. Animals were food fasted for at least 8 hours. Animals were monitored until fully recovered. Anesthesia procedures were documented and retained in the study data. The dose formulations were administered to appropriate animals by topical application on the dorsal surface (Dose Site #1) once on Day 1. The dose site was and/or shaved and marked at least one day prior to Day 1. At least the four corners of the dose sites will be marked with indelible ink based on the appropriate dose area. At least the four corners of the tape stripping area were marked with indelible ink for Group 2 and 3 animals. The site for Group 2 and 3 animals was gently abraded via tape stripping (conducted 50 times). All animals will have a uniform topical application using a gloved hand and/or spatula to rub the entire dose amount throughout the total dose area (for 1 minute). Topical application to the dose area for Group 4 animals will include application of the dose amount over the created wounds. If an animal is observed to have test material remaining following the application time, the observation will be documented. Dose formulations will be allowed to equilibrate at ambient temperature for at least 15 minutes prior to and continuously throughout dose administration Prior to dermal (topical) application on Day 1, the dose site for Group 1 to 3 animals were wiped clean with water-moistened gauze or paper towels then wiped dry with dry gauze or paper towels. Following washing and drying, […]. On Day 1, Group 4 animals: The animal backs were prepared for wound creation by performing a surgical scrub. Two (2) wounds were created on the dorsal surface of each Group 4 animal within a 7×7 cm area using an 8 mm punch biopsy. Steps were taken to ensure the area designated for wound creation is within the total dose area (8×8 cm). […]

In a further series the test system is Granzyme B. The following applies: donors 4-6, from 100 μg/ml, versus vehicle control.

A value given as a limit tells only on which side of the number the result lay.

Protocol for Granzyme B: NK cells were cultured with the NK activation beads for two days at 37° C. in the presence of 5% CO2. […] Samples were then treated with eBioscience Intracellular Fixation & Permeabilization Buffer Set to allow staining of intracellular granzyme B. Marker expression was determined by flow cytometry and appropriate “Fluorescence-Minus-One controls” controls were used. Flow cytometry data was analysed using FlowJo analysis software and data was graphed using Graph Pad Prism.
CD56+ cells were isolated from three donor buffy coats by magnetic separation. […] Next, the effect of compound addition at different timepoints and doses, following either optimal or suboptimal NK activation was determined by measuring expression of the activation markers CD25, CD69 and Granzyme B on NK cells. […] Treatment was administered at 0, 6, 24 and 30 hours. The controls were 200 nM Cortisol and 500 nM Deuruxolitinib (Jak inhibitor).

On to `CCOCCOCCO` [Diethylene glycol monoethyl ether], for which, in series [1], the “Log P (octanol:water)” value is −0.43.
Take `CNC[C@H](O)c1ccc(OC(=O)C(C)(C)C)c(OC(=O)C(C)(C)C)c1` [dipivefrin]: the “in vitro release from the topical gel matrix (permeation and flux)” value in series [2] is reported as “Rapid release”. Besides, the “permeation as a function of API loading” value in series [3] is recorded as “Dose proportional increases in permeation”. The “permeation through buccal tissue versus porcine ear” value in series [4] is “reduced dipivefrin permeation”. For the same compound, the “duration of epinephrine exposure” value in series [5] was more than 1 h. The “duration of high exposure in dermis and epidermis” value in series [6] (30 mg/cm2, 7, 10 and 12% BSA) was “more than 6 hours”. Moreover, the systemic exposure entry in series [6] (high body surface area coverage) was “no systemic exposure”. For the same compound, the “% inactivation relative to vehicle” value in the series on NK cells (500 nM) amounted to 67%. The “% inactivation relative to vehicle” value in the series with NK cells (1000 nM) was 68%. For the same compound, the “% inactivation relative to vehicle” value in the series on NK cells (2500 nM) is given as 66%. Further, the “suppression of activation of NK cells, Epinephrine and Dipivefrin combined for analysis” value in the series on NK cells (range of concentrations, exceeding IC50 at 70, 140 and 280 nM) is “effective suppression”. In the series on NK cells (range of concentrations, exceeding IC50 at 140 and 280 nM), the “modulation of NK cell activity” value was “effectively deactivated NK cells”. Further, in [7], the AQST-108 plasma concentrations entry is “No AQST-108 plasma concentrations”, the “serious adverse events (SAE) or topical adverse events (AE)” value is recorded as “No serious adverse events” and the systemic epinephrine concentrations result was “within normal physiologic range”. Further, the “PK parameters in plasma, intact skin versus abraded skin” value in series [8] was “no significant difference”.
On to dipivefrin, for which, in the series with NK cells (doses up to 5 ng/mL, comparable to 20 nM Cortisol), the “reduction of NK cell activation as compared to control” value is given as “about 12%”. The “reduction in CD25+CD69+ NK cells compared to vehicle control” value in the series with NK cells (higher doses, donors 4-6) is on record as 5-12%; in the series on NK cells (lower doses, donors 2-3), 7-12%. In the series with Granzyme B, the “Median Fluorescence Intensity (MFI) of Granzyme B” value is given as “decreasing to some extent”.
